The values that follow come from patent US20080045521A1, “PHENYLALANINE DERIVATIVES” (AstraZeneca AB, priority 2006, published 2008).

The IC50 is the concentration needed to halve the response being measured.

Test [1] addresses T1, α5β1 integrin mediated adhesion of K562 cells (Homo sapiens, UniProt P05556+P08648).
T1 construct: host or cells: K562 human erythroleukaemia cells
The test can be described thus: In vitro cell adhesion assay (b): inhibition of adhesion of K562 cells to fibronectin fragment Fn9-10, crystal violet stain. It counts as cell-based. Conditions: for IC50: K562 cells on Fn9-10, geometric mean of the measured IC50 values, n = number of tests; for activity in the cell adhesion assay (b): K562 cells, result in words. The text has this:
(b) In Vitro Cell Adhesion Assay
The assay determined the ability of compounds to inhibit the α5β1 integrin mediated adhesion of K562 cells to the ligand, a fragment of human fibronectin. The human K562 erythroleukaemia cell line (LGC Promochem, Teddington, Middlesex, UK, Catalogue No. CCL-243) was routinely maintained in RPMI 1640 medium (Sigma-Aldrich Company Ltd, Gillingham, Dorset SP8 4XT, Catalogue No. R0883) containing 10% heat-inactivated foetal calf serum (PAA lab GmbH, Pasching, Austria Catalogue No. PAA-A15-043) and 1% glutamax-1 (Invitrogen Ltd. Paisley, UK Catalogue No. 35050-038) at 37° C. with 5% CO2 at densities between 1×10^5 and 1×10^6 cells/ml.
A DNA fragment encoding the domains 9-10 (amino-acids 1325-1509) of human fibronectin (Swiss-Prot Accession No. P02751) was isolated from cDNA libraries using standard molecular biology and PCR cloning techniques. The cDNA fragment was sub-cloned into a pT7#3.3 expression vector containing a GST-epitope tag (developed at AstraZeneca; Bagnall et al., Protein Expression and Purification, 2003, 27: 1-11), and the fragment termed Fn9-10. Following expression in E. coli, the expressed protein was purified using the GST-tag using standard purification techniques.
For adhesion assay, a 96-well flat bottomed plate (Greiner Bio one ltd., Gloucester GL10 3 SX Catalogue No. 655101) was coated overnight at 4° C. with 100 μl of 20 μg/ml Fn9-10 ligand in Dulbecco's PBS (Gibco#14190-94). The plate was then washed twice with 200 μl of PBS and blocked with 100 μl of 3% BSA (SigmaA7888) in PBS for 1 hour at 37° C. The plates were then washed again 3 times with 200 μl of PBS and left empty.
Test compounds were prepared as 10 mM stock solutions in DMSO (Sigma-Aldrich Company Ltd, Gillingham, Dorset SP8 4XT Catalogue No. 154938) and serially diluted with HBSS (Hanks Buffered Salt solution (Gibco Catalogue No. 14170-088)/2% DMSO to give a range of test concentrations at twice required final concentration. Aliquots (50 μl) of each compound dilution were placed into each well of the Fn9-10 coated plates. Each plate also contained control wells: maximum adhesion signal was created using wells containing 50 μl HBSS/2% DMSO, and minimum signal corresponding to no adhesion was created using wells containing 50 μl HBSS/2% DMSO /20 mM EDTA (Sigma Catalogue No. E7889). […]
After fixation, the ethanol was flicked off to waste and 100 μl of 0.1% Crystal violet stain was added to each well, and incubated at ambient temperature for 15 minutes. […] Finally, 100 μl of deionised water was added to each well and the absorbance was determined at 590 nm on a spectrophotometer. The minimum value was subtracted from all values, and the absorbance signal was plotted against compound concentration to generate IC50 data.

Test [2] deals with recombinant human α5β1 (Homo sapiens, UniProt P05556+P08648). Briefly: In vitro binding assay (a): inhibition of binding of α5β1 integrin to a fragment of human fibronectin (Fn9-10), Origen electrochemiluminescence. Conditions: geometric mean of the measured IC50 values; n = number of tests. From the text:
(a) In Vitro Binding Assay
The assay determined the ability of compounds to inhibit binding of α5β1 integrin to a cognate ligand, a fragment of human fibronectin. The assay used Origen technology (IGEN International) to measure the compound activity. Briefly, α5β1 integrin was coated onto epoxy-paramagnetic beads (Dynal Biotech UK, Bromborough, Wirral, CH62 3QL, UK, Catalogue No 140.11) and biotinylated-fibronectin ligand was coupled to strepatividin labeled Tag-NHS-Ester (BioVeris Corporation, Witney, Oxfordshire, OX28 4GE, UK, Catalogue No 110034). The ruthenium-labeled tag emits an electrochemiluminescence signal upon stimulation which is detected by the Origen reader. […]
20 μg of recombinant human α5β1 was coated onto 4×10(7) epoxy-paramagnetic beads according to manufacturers instructions at 4° C. for 24 hours. Integrin coating and corresponding activity was subsequently measured for each batch but typically, 25 ng of coated protein was used per assay well. […]
For the assay, 25 ng (20 ul) of a5b 1-bead suspension and 40 μl of the Fn9-10/Tag pre-incubated solution were added to each well containing 20 μl of compound or control solution. Assay plates were then incubated at room temperature for a minimum of 6 hours before being analysed on an Origen plate reader. […]

T1 sequence (P08648 42-894 limits assumed): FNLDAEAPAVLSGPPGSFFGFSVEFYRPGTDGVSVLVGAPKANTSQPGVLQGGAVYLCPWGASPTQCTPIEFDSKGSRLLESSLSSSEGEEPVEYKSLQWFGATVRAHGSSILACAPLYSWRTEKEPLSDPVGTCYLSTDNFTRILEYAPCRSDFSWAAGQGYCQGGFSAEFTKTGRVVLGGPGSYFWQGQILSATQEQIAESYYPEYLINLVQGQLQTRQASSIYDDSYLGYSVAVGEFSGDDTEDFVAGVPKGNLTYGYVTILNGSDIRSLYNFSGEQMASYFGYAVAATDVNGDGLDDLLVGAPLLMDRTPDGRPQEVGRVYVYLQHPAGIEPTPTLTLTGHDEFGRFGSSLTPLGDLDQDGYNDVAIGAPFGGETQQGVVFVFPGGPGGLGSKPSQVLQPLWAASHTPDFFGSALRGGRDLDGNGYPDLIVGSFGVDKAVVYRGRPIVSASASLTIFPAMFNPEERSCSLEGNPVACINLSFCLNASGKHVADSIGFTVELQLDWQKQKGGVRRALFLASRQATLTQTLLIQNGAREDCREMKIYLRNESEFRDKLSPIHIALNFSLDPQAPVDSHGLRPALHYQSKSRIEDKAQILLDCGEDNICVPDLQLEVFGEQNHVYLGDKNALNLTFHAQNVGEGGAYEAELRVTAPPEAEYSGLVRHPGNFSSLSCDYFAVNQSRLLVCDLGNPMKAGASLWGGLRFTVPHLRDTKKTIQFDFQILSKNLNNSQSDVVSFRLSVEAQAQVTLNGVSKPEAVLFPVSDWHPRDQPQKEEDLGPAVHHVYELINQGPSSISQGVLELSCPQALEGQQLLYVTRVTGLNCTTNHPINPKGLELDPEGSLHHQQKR
T1 sequence (P08648 895-1049 partner limits assumed): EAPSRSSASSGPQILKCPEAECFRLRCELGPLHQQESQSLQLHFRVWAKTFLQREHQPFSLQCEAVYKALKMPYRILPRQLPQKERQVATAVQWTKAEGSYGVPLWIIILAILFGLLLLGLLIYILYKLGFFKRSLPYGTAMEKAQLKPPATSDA
T1 sequence (P05556 21-798): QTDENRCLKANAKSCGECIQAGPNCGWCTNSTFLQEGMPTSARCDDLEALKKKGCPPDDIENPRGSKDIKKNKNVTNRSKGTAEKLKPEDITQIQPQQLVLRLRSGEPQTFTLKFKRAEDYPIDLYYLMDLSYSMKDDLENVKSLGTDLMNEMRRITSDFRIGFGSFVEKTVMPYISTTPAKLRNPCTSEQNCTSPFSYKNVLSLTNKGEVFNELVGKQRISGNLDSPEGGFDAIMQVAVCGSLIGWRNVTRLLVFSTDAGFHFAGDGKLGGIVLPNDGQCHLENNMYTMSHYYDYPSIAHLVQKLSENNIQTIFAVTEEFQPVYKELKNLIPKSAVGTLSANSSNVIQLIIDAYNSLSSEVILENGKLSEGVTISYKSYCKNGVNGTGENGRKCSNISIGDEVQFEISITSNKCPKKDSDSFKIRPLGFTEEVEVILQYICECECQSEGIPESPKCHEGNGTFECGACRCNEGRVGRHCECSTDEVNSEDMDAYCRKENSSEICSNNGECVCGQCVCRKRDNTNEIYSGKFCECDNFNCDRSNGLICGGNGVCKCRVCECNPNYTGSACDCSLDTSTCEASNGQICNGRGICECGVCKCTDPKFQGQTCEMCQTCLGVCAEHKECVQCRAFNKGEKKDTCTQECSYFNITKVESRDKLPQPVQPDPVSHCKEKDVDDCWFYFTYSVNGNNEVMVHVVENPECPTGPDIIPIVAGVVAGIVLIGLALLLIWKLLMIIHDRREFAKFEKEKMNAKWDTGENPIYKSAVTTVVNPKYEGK
Sequence of recombinant human α5β1 (P08648 42-1049): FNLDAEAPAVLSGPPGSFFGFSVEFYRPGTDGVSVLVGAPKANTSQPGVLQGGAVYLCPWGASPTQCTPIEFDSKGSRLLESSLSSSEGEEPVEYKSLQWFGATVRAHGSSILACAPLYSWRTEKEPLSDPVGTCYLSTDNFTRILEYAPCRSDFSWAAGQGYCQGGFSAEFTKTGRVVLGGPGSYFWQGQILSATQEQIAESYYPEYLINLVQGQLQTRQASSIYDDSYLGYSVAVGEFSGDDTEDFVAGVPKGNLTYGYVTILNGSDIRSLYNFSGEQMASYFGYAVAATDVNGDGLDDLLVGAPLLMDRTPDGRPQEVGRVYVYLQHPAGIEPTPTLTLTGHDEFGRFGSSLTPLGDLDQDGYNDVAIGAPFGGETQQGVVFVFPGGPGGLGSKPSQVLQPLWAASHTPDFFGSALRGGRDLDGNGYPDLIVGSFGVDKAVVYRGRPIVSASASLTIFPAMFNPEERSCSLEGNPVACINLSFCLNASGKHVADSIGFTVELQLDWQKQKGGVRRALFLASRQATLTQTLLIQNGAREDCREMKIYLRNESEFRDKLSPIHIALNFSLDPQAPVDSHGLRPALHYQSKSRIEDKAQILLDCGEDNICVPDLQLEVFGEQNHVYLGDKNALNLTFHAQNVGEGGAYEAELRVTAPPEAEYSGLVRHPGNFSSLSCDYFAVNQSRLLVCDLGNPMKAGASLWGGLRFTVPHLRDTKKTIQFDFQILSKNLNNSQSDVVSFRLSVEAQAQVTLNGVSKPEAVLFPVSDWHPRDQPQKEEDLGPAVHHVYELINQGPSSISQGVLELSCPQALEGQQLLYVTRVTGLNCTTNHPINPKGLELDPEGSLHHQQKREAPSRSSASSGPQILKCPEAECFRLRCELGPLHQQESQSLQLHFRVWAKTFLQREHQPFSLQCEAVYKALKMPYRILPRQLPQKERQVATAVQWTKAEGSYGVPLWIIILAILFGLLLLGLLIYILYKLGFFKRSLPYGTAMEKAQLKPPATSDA
Sequence of recombinant human α5β1 (P05556 21-798): as the sequence (P05556 21-798) above

As for `O=C(N[C@@H](Cc1ccc(OCCc2ccc3c(n2)NCCC3)cc1)C(=O)O)c1c(Cl)cccc1Cl` [Example 3, N-(2,6-dichlorobenzoyl)-O-[2-(5,6,7,8-tetrahydro-1,8-naphthyridin-2-yl)ethyl]-L-tyrosine], the IC50 in test [1] amounted to 2 nM; in test [2], 0.4 nM.

On to `CNc1cccc(CCCc2ccc(C[C@H](NC(=O)c3c(Cl)cccc3Cl)C(=O)O)s2)n1` [Example 29, N-(2,6-dichlorobenzoyl)-3-(5-{3-[6-(methylamino)pyridin-2-yl]propyl}-2-thienyl)-L-alanine], for which the IC50 was 31 nM in test [1] and 2 nM in test [2]. As for `O=C(N[C@@H](Cc1cccc(OCCNc2ccccn2)c1)C(=O)O)c1c(Cl)cccc1Cl` [N-(2,6-dichlorobenzoyl)-3-[2-(pyridin-2-ylamino)ethoxy]-L-phenylalanine], the “activity in the cell adhesion assay (b)” value in test [1] was “low activity”.

Take `O=C(N[C@@H](Cc1cccc(OCCCCNc2ccccn2)c1)C(=O)O)c1c(Cl)cccc1Cl` [N-(2,6-dichlorobenzoyl)-3-[4-(pyridin-2-ylamino)butoxy]-L-phenylalanine]: the “activity in the cell adhesion assay (b)” value in test [1] is reported as “low activity”.
